The values below are quoted from earlier work in US20240033223A1 (SICHUAN CREDIT PHARMACEUTICAL CO., LTD, priority 2020, published 2024).

Each structure is given as a SMILES string.

For the series the following is noted: aqueous preparation (U.S. Pat. No. 4,925,860).

Consider `O=C1NC(=O)C(c2ccccc2)(c2ccccc2)N1` [Impurity C, Phenytoin], for which the Solubility in water result is on record as “water-insoluble”.
